Source: patent US20040209799A1, “JAK/STAT pathway inhibitors and the uses thereof” (priority 2000, published 2004)

How the values were obtained:
Format in all cases: cell-based
Conditions in all cases: 5 μM, 2 ng/ml rhIL-1β, 24 hours, free base or trifluoroacetic acid salt form
[1] = tested on: stromelysin-1 (MMP3) mRNA; experiment: northern blot, IL-1β-induced mRNA in human articular chondrocytes: stromelysin-1
Experimental: (§1) Frozen human articular chondrocyte cell strain HC30-0198 (described in Example 1) was thawed, and cultured in monolayer in T150 tissue culture flasks (Corning Costar, Cambridge, Mass.) as described above to 1-5 days post-confluence. Test cultures were rinsed in PBS, and preincubated for 2 hours with 10 ml of serum-free DMEM containing 5 μM DBH (synthetic), in its free base or trifluoroacetic acid salt form. An additional 10 ml of serum-free DMEM containing 5 μM DBH, 4 ng/ml recombinant human interleukin-1β (rhIL-1β; final concentration of 2 ng/ml) (R&D Systems, Minneapolis, Minn.), and 2% antibiotic solution (final concentration of 1%), were then added for 24 hours.
(§2) Two control cultures were run in parallel: one without DBH (rhIL-1β alone), and another without DBH or rhIL-1β.
(§3) Total RNA was fixed to the membrane using a Stratalinker® 1800 UV Crosslinker (Stratagene, La Jolla, Calif.). […]
(§4) The blot was successively washed two times in 2×SSC/0.05% SDS (15 min/wash at room temperature), and two times in 0.1×SSC/0.1% SDS (30 minutes/wash at 65° C.). The blot was allowed to air dry, and the radioactive signal was visualized and quantified using a Fujifilm, BAS-1500 phosphorimager (Fuji, Stamford, Conn.). […]

[2] = tested on: collagenase 1 (MMP1) mRNA; experiment: northern blot, IL-1β-induced mRNA in human articular chondrocytes: collagenase 1
Experimental: as §1, §2, §3, §4

[3] = tested on: tumor necrosis factor-α (TNF-α) mRNA; experiment: northern blot, IL-1β-induced mRNA in human articular chondrocytes: TNF-α
Experimental: as §1, §2, §3, §4

[4] = tested on: interleukin-6 (IL-6) mRNA; experiment: northern blot, IL-1β-induced mRNA in human articular chondrocytes: IL-6
Experimental: as §1, §2, §3, §4

- inhibition of IL-1β-induced upregulation of collagenase 1 (MMP1) mRNA [2]: inhibit to various degrees
Structure (SMILES): NC1=NC(=O)C(=C2CCNC(=O)c3[nH]ccc32)N1 [DBH, 4-(2-amino-4-oxo-2-imidazolin-5-ylidene)-4,5,6,7-tetrahydropyrrolo(2,3-c) azepine-8-one]
- inhibition of IL-1β-induced upregulation of stromelysin (MMP3) mRNA [1]: inhibit to various degrees
- inhibition of IL-1β-induced upregulation of tumor necrosis factor-α (TNF-α) mRNA [3]: inhibit to various degrees
- inhibition of IL-1β-induced upregulation of interleukin-6 (IL-6) mRNA [4]: inhibit to various degrees
